{"source": "paper PMC3478670", "about": "(Journal of medicinal chemistry, 2012)", "key": {"HIV-1NL4-3": {"system": "HIV-1NL4-3", "assay": "HIV-1NL4-3 replication inhibition assay in MT-4 lymphocytes", "type": "cell-based", "conditions": "HIV-1NL4-3 infected MT-4 cells"}, "in vitro": {"assay": "in vitro", "conditions": "human, pooled human liver microsomes, pH 7.4"}}, "data": [{"smiles": "C=C(C)[C@@H]1CC[C@]2(C(=O)O)CC[C@]3(C)[C@H](CC[C@@H]4[C@@]5(C)CC[C@H](OCOC)C(C)(C)[C@@H]5CC[C@]43C)[C@@H]12", "note": "[Compound 5, 3β-Methoxymethoxy-betulinic acid]", "values": [{"measurement": "anti-HIV replication activity (in words)", "setting": "HIV-1NL4-3", "value": "did not show anti-HIV activity"}]}, {"smiles": "C=C(C)[C@@H]1CC[C@]2(C(=O)N3CCN(CCCCC(=O)O)CC3)CC[C@]3(C)[C@H](CC[C@@H]4[C@@]5(C)CC[C@H](OC(=O)CC(C)(C)C(=O)O)C(C)(C)[C@@H]5CC[C@]43C)[C@@H]12", "note": "[Compound 41, N-[3β-O-(3′,3′-Dimethylsuccinyl)-lup-20(29)-en-28-oyl]-5-piperazinepentanoic acid]", "values": [{"measurement": "microsomal CLint at 1 μM", "setting": "in vitro", "value": 2.1, "unit": "µL/min/mg"}]}, {"smiles": "C=C(C)[C@@H]1CC[C@]2(C(=O)OCOC)CC[C@]3(C)[C@H](CC[C@@H]4[C@@]5(C)CC[C@H](O)C(C)(C)[C@@H]5CC[C@]43C)[C@@H]12", "note": "[Compound 7, Methoxymethyl 3β-hydroxy-lup-20(29)-en-28-oate]", "values": [{"measurement": "anti-HIV replication activity (in words)", "setting": "HIV-1NL4-3", "value": "did not show anti-HIV activity"}]}, {"smiles": "C=C(C)[C@@H]1CC[C@]2(C(=O)OCOCCOC)CC[C@]3(C)[C@H](CC[C@@H]4[C@@]5(C)CC[C@H](OCOCCOC)C(C)(C)[C@@H]5CC[C@]43C)[C@@H]12", "note": "[Compound 4, Methoxyethoxymethyl 3β-methoxyethoxymethoxy-lup-20(29)-en-28-oate]", "values": [{"measurement": "anti-HIV replication activity (in words)", "setting": "HIV-1NL4-3", "value": "did not show anti-HIV activity"}]}, {"smiles": "C=C(C)[C@@H]1CC[C@]2(C(=O)OCOC)CC[C@]3(C)[C@H](CC[C@@H]4[C@@]5(C)CC[C@H](OCOC)C(C)(C)[C@@H]5CC[C@]43C)[C@@H]12", "note": "[Compound 3, Methoxymethyl 3β-methoxymethoxy-lup-20(29)-en-28-oate]", "values": [{"measurement": "anti-HIV replication activity (in words)", "setting": "HIV-1NL4-3", "value": "did not show anti-HIV activity"}]}, {"smiles": "C=C(C)[C@@H]1CC[C@]2(C(=O)O)CC[C@]3(C)[C@H](CC[C@@H]4[C@@]5(C)CC[C@H](OCOCCOC)C(C)(C)[C@@H]5CC[C@]43C)[C@@H]12", "note": "[Compound 6, 3β-Methoxyethoxymethoxy-betulinic acid]", "values": [{"measurement": "anti-HIV replication activity (in words)", "setting": "HIV-1NL4-3", "value": "did not show anti-HIV activity"}]}, {"smiles": "C=C(C)[C@@H]1CC[C@]2(C(=O)OCCCCCCCC)CC[C@]3(C)[C@H](CC[C@@H]4[C@@]5(C)CC[C@H](OC(=O)CC(C)(C)C(=O)O)C(C)(C)[C@@H]5CC[C@]43C)[C@@H]12", "note": "[Compound 23, Octyl 3β-O-(3′,3′-dimethylsuccinyl)-lup-20(29)-en-28-oate]", "values": [{"measurement": "anti-HIV replication activity (in words)", "setting": "HIV-1NL4-3", "value": "no inhibition of HIV-1 replication"}]}, {"smiles": "C=C(C)[C@@H]1CC[C@]2(C(=O)OCOCCOC)CC[C@]3(C)[C@H](CC[C@@H]4[C@@]5(C)CC[C@H](O)C(C)(C)[C@@H]5CC[C@]43C)[C@@H]12", "note": "[Compound 8, Methoxyethoxymethyl 3β-hydroxy-lup-20(29)-en-28-oate]", "values": [{"measurement": "anti-HIV replication activity (in words)", "setting": "HIV-1NL4-3", "value": "did not show anti-HIV activity"}]}]}
